The kinase profiling compilation of Christmann-Franck et al. (2016)

What was measured:
Test in all cases: KINOMEscan competition binding
Details in all cases: compound 10.0 µM
[1] = target: INSRR (human) (UniProt P14616)
[2] = target: MAP4K2 (human) (UniProt Q12851)
[3] = target: MAP4K5 (human) (UniProt Q9Y4K4)
[4] = target: CSK (human) (UniProt P41240)
[5] = target: PRKCQ (human) (UniProt Q04759)
[6] = target: ROS1 (human) (UniProt P08922)
[7] = target: ACVRL1 (human) (UniProt P37023)
[8] = target: PIM1 (human) (UniProt P11309)
[9] = target: MAP3K12 (human) (UniProt Q12852)
[10] = target: AURKC (human) (UniProt Q9UQB9)
[11] = target: AKT3 (human) (UniProt Q9Y243)
[12] = target: SRC (human) (UniProt P12931)
[13] = target: EPHA4 (human) (UniProt P54764)
[14] = target: FGFR4 (human) (UniProt P22455)
[15] = target: STK32B (human) (UniProt Q9NY57)
[16] = target: PRKAA1 (human) (UniProt Q13131)
[17] = target: LIMK1 (human) (UniProt P53667)
[18] = target: SRPK1 (human) (UniProt Q96SB4)
[19] = target: CHEK2 (human) (UniProt O96017)
[20] = target: TNIK (human) (UniProt Q9UKE5)
[21] = target: BRSK2 (human) (UniProt Q8IWQ3)
[22] = target: FER (human) (UniProt P16591)
[23] = target: CAMK2D (human) (UniProt Q13557)
[24] = target: BMPR2 (human) (UniProt Q13873)
[25] = target: DCLK3 (human) (UniProt Q9C098)
[26] = target: MYLK (human) (UniProt Q15746)
[27] = target: DAPK2 (human) (UniProt Q9UIK4)
[28] = target: CDC42BPB (human) (UniProt Q9Y5S2)
[29] = target: AURKA (human) (UniProt O14965)
[30] = target: NEK9 (human) (UniProt Q8TD19)
[31] = target: CAMK1D (human) (UniProt Q8IU85)
[32] = target: HIPK3 (human) (UniProt Q9H422)
[33] = target: MAP3K6 (human) (UniProt O95382)
[34] = target: HIPK2 (human) (UniProt Q9H2X6)
[35] = target: STK39 (human) (UniProt Q9UEW8)

Chain of NEK9 (human) (Q8TD19 whole entry, looked up): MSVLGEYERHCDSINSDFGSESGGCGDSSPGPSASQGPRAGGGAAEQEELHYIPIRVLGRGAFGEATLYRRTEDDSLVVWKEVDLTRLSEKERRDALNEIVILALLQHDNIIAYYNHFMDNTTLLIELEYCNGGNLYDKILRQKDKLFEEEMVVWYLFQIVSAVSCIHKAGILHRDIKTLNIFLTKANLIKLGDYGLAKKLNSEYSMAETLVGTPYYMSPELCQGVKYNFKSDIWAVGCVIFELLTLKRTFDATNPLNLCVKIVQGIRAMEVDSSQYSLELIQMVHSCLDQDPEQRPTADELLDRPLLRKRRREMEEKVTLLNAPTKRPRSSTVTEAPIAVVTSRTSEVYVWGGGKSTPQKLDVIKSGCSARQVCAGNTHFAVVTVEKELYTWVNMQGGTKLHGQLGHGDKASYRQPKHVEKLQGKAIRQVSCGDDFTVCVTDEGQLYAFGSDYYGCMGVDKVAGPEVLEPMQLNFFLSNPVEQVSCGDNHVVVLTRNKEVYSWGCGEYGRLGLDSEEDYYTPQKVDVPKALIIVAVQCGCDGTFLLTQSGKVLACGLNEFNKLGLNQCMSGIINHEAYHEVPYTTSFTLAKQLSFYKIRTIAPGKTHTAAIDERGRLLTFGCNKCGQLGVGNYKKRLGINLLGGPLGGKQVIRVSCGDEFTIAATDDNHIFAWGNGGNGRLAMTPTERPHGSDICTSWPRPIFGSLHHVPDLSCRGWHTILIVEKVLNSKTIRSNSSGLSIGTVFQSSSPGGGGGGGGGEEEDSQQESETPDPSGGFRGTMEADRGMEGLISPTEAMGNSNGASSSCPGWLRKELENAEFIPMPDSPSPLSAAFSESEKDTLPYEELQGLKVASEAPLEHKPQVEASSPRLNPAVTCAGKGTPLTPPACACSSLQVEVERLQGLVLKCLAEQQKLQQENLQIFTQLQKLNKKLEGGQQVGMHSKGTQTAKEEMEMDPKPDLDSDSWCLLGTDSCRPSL
Chain of MAP4K2 (human) (Q12851 whole entry, looked up): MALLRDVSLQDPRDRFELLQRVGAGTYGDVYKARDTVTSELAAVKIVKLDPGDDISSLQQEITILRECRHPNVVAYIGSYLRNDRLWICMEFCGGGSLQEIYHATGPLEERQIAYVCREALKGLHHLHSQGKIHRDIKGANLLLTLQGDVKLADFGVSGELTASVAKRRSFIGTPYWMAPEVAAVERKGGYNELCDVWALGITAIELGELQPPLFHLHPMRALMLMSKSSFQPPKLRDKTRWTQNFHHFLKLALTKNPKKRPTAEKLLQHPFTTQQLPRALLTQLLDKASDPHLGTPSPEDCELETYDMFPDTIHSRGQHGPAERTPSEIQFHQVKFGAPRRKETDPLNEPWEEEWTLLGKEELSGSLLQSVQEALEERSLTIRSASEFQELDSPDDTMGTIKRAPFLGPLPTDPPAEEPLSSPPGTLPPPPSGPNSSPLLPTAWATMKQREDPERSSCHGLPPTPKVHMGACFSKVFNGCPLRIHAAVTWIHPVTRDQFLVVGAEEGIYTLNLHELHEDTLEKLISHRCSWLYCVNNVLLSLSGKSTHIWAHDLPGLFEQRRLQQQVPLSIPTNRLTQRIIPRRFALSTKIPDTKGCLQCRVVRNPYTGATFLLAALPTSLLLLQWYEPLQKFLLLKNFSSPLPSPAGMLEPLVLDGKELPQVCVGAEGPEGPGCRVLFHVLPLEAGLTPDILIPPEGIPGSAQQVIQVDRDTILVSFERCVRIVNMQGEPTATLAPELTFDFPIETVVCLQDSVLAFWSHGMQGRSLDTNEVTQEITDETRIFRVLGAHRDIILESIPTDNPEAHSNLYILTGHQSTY
Chain of MYLK (human) (Q15746 whole entry, looked up): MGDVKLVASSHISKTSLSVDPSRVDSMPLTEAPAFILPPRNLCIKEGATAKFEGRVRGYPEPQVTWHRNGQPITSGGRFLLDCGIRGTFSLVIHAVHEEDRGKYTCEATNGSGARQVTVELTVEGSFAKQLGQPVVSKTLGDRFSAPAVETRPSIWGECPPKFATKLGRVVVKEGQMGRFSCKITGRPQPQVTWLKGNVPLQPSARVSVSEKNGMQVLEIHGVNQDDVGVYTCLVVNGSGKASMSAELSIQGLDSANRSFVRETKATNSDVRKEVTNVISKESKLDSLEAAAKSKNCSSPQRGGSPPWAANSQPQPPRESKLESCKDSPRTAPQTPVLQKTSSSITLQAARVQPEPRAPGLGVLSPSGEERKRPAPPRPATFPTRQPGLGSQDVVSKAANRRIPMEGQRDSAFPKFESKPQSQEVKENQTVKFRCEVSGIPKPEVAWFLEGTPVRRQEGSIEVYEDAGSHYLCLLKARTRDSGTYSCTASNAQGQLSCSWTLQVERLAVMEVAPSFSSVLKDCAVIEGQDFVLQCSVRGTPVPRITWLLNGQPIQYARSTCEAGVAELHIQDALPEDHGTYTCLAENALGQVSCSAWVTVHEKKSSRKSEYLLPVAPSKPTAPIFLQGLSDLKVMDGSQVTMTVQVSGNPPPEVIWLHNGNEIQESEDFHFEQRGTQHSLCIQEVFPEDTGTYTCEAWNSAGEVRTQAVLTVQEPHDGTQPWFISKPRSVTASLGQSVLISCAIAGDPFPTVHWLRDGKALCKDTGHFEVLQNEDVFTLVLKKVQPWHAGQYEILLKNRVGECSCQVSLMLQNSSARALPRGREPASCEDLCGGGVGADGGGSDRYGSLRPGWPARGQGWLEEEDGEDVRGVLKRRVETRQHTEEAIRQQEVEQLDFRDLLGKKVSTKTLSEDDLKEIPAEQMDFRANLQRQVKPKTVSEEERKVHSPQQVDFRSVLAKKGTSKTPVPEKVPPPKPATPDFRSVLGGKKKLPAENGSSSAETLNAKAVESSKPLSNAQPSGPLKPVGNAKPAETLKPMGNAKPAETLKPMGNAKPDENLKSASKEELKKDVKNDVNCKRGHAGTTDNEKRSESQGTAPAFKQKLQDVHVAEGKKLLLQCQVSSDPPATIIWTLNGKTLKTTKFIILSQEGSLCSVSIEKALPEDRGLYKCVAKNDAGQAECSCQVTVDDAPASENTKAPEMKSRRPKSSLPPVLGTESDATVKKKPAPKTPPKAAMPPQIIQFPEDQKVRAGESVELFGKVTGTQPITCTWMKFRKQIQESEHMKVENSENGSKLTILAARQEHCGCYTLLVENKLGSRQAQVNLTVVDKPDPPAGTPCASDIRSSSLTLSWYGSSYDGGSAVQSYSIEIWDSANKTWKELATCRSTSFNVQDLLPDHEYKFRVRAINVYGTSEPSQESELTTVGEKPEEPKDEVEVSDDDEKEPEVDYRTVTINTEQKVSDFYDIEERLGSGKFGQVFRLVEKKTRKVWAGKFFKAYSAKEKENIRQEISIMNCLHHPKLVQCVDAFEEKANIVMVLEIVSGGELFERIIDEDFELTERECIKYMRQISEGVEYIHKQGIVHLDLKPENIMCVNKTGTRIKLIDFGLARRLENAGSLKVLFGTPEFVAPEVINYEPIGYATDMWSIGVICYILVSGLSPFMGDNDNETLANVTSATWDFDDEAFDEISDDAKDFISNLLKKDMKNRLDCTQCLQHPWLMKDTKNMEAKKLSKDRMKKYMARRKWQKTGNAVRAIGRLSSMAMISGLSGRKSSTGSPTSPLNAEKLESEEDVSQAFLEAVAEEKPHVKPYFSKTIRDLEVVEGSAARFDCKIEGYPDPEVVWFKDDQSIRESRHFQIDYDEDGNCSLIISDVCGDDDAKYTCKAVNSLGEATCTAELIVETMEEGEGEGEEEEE
Chain of LIMK1 (human) (P53667 whole entry, looked up): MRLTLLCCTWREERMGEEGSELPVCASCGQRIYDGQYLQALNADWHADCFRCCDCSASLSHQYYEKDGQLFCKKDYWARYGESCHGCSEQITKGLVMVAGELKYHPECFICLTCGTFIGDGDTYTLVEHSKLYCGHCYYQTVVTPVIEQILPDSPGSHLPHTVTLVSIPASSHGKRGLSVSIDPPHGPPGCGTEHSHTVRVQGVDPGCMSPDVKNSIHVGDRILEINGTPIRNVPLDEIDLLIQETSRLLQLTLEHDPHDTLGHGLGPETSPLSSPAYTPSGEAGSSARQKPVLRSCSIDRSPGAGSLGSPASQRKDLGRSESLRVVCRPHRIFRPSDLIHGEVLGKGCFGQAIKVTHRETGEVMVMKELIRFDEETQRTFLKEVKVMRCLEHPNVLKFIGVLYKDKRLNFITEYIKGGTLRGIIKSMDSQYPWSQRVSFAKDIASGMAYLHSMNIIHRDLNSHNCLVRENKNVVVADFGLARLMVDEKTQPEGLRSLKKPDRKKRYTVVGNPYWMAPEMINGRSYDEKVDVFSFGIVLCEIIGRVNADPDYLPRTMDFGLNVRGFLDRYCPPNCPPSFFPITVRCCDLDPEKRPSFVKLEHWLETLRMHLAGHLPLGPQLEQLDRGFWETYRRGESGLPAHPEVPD
Chain of DCLK3 (human) (Q9C098 whole entry, looked up): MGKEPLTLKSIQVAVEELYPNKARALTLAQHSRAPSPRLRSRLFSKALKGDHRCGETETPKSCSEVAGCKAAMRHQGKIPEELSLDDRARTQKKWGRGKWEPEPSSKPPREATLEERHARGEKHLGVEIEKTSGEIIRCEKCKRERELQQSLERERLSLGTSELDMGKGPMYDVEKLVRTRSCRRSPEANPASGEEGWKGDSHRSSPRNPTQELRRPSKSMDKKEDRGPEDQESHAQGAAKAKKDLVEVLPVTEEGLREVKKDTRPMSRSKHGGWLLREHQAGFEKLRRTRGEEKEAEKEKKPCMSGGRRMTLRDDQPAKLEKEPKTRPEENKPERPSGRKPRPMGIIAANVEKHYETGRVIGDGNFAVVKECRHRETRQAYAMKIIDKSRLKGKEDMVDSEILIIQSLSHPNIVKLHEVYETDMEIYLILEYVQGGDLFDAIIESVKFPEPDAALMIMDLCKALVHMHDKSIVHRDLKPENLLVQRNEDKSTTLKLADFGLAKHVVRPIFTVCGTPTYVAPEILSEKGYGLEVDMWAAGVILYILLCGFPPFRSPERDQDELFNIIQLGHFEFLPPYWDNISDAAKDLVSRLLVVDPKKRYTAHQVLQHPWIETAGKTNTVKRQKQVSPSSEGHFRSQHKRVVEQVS

Row | kinase still bound, per cent of control [1] [%] | kinase still bound, per cent of control [4] [%] | kinase still bound, per cent of control [5] [%] | kinase still bound, per cent of control [6] [%] | kinase still bound, per cent of control [7] [%] | kinase still bound, per cent of control [8] [%] | kinase still bound, per cent of control [9] [%] | kinase still bound, per cent of control [10] [%] | kinase still bound, per cent of control [11] [%] | kinase still bound, per cent of control [12] [%] | kinase still bound, per cent of control [13] [%] | kinase still bound, per cent of control [15] [%] | kinase still bound, per cent of control [16] [%] | kinase still bound, per cent of control [17] [%] | kinase still bound, per cent of control [18] [%] | kinase still bound, per cent of control [20] [%] | kinase still bound, per cent of control [21] [%] | kinase still bound, per cent of control [22] [%] | kinase still bound, per cent of control [23] [%] | kinase still bound, per cent of control [24] [%] | SMILES | further results
1 | 3.2 | 100 | 24 | 0.85 | 100 | 100 | 0.4 | 0.65 | 100 | 0.25 | 100 | 100 | 4.6 | 100 | 2 | 19 | 100 | 1.1 | 100 | 7.9 | CNC(=O)c1ccc(Nc2cc(Nc3ccccc3S(=O)(=O)C(C)C)c3cc[nH]c3n2)nc1 | kinase still bound, per cent of control [2]: 11%; kinase still bound, per cent of control [3]: 1.8%; kinase still bound, per cent of control [14]: 100%; kinase still bound, per cent of control [19]: 100%; kinase still bound, per cent of control [25]: 2.8%; kinase still bound, per cent of control [26]: 100%; kinase still bound, per cent of control [27]: 100%; kinase still bound, per cent of control [28]: 100%; kinase still bound, per cent of control [29]: 2.7%; kinase still bound, per cent of control [30]: 100%; kinase still bound, per cent of control [31]: 100%
2 | 100 | 100 | 100 | 7.6 | 100 | 100 | 100 | 100 | 100 | 100 | 100 | 100 | 100 | 100 | 100 | 100 | 100 | 32 | 23 | 100 | COc1cc(N2CCN(C)CC2)ccc1Nc1ncc2c(n1)N(C)c1ccccc1C(=O)N2C | kinase still bound, per cent of control [2]: 100%; kinase still bound, per cent of control [3]: 100%; kinase still bound, per cent of control [14]: 5.6%; kinase still bound, per cent of control [32]: 100%; kinase still bound, per cent of control [33]: 100%; kinase still bound, per cent of control [34]: 100%; kinase still bound, per cent of control [19]: 30%; kinase still bound, per cent of control [35]: 23%; kinase still bound, per cent of control [25]: 16%; kinase still bound, per cent of control [26]: 13%; kinase still bound, per cent of control [27]: 100%; kinase still bound, per cent of control [28]: 100%; kinase still bound, per cent of control [29]: 100%; kinase still bound, per cent of control [30]: 100%; kinase still bound, per cent of control [31]: 100%
3 | 18 | 100 | 100 | 100 | 100 | 100 | 100 | 100 | 100 | 6.6 | 100 | 100 | 100 | 100 | 100 | 100 | 100 | 100 | 100 | 8.9 | C=CC(=O)Nc1ccc(CN(C(=O)Nc2c(Cl)c(OC)cc(OC)c2Cl)c2cc(Nc3ccc(N4CCN(C)CC4)cc3)ncn2)cc1 | kinase still bound, per cent of control [2]: 100%; kinase still bound, per cent of control [3]: 2.3%; kinase still bound, per cent of control [14]: 0.1%; kinase still bound, per cent of control [19]: 100%; kinase still bound, per cent of control [25]: 100%; kinase still bound, per cent of control [26]: 100%; kinase still bound, per cent of control [27]: 100%; kinase still bound, per cent of control [28]: 100%; kinase still bound, per cent of control [29]: 100%; kinase still bound, per cent of control [30]: 100%; kinase still bound, per cent of control [31]: 100%
4 | 100 | 100 | 100 | 100 | 100 | 100 | 100 | 100 | 100 | 100 | 100 | 100 | 100 | 100 | 100 | 100 | 100 | 100 | 100 | 100 | CCN(CC)CCCCNc1ncc2cc(-c3cc(OC)cc(OC)c3)c(NC(=O)NC(C)(C)C)nc2n1 | kinase still bound, per cent of control [3]: 100%; kinase still bound, per cent of control [25]: 100%; kinase still bound, per cent of control [26]: 100%; kinase still bound, per cent of control [27]: 100%; kinase still bound, per cent of control [28]: 100%; kinase still bound, per cent of control [29]: 100%; kinase still bound, per cent of control [30]: 100%; kinase still bound, per cent of control [31]: 100%

Row | SMILES | kinase still bound, per cent of control [1] [%] | kinase still bound, per cent of control [4] [%] | kinase still bound, per cent of control [5] [%] | kinase still bound, per cent of control [6] [%] | kinase still bound, per cent of control [7] [%] | kinase still bound, per cent of control [8] [%] | kinase still bound, per cent of control [9] [%] | kinase still bound, per cent of control [10] [%] | kinase still bound, per cent of control [11] [%] | kinase still bound, per cent of control [12] [%] | kinase still bound, per cent of control [13] [%] | kinase still bound, per cent of control [15] [%] | kinase still bound, per cent of control [16] [%] | kinase still bound, per cent of control [17] [%] | kinase still bound, per cent of control [18] [%] | kinase still bound, per cent of control [20] [%] | kinase still bound, per cent of control [21] [%] | kinase still bound, per cent of control [22] [%] | kinase still bound, per cent of control [23] [%] | kinase still bound, per cent of control [24] [%] | further results
5 | Cc1n[nH]c2ccc(-c3cncc(OC[C@@H](N)Cc4c[nH]c5ccccc45)c3)cc12 | 100 | 100 | 0 | 100 | 100 | 0.4 | 100 | 34 | 2.9 | 100 | 100 | 100 | 100 | 100 | 17 | 3.2 | 100 | 100 | 2.5 | 100 | kinase still bound, per cent of control [2]: 8.8%; kinase still bound, per cent of control [14]: 100%; kinase still bound, per cent of control [19]: 100%; kinase still bound, per cent of control [25]: 2%; kinase still bound, per cent of control [26]: 0.1%; kinase still bound, per cent of control [27]: 1.3%; kinase still bound, per cent of control [28]: 1%; kinase still bound, per cent of control [29]: 100%; kinase still bound, per cent of control [30]: 100%; kinase still bound, per cent of control [31]: 11%
